According to US8592466B2, “Methods for treating conditions caused by higher-than-normal dopaminergic activity in basal ganglia” (Neuropill, Inc., priority 2008, dated 2013):
Values after ≈ are worked out from the molar mass of the structure shown.

Legend:
[1] = Phase I cocaine interaction study: heart rate and blood pressure
[2] = system: dopamine release in the ventral striatum; conditions: animal data, cited from earlier work
CCK-B receptor = target: T1, CCK-B receptor (Homo sapiens, UniProt P32239); test: CCK-B receptor antagonism (statement)
T1 sequence (P32239 1-447): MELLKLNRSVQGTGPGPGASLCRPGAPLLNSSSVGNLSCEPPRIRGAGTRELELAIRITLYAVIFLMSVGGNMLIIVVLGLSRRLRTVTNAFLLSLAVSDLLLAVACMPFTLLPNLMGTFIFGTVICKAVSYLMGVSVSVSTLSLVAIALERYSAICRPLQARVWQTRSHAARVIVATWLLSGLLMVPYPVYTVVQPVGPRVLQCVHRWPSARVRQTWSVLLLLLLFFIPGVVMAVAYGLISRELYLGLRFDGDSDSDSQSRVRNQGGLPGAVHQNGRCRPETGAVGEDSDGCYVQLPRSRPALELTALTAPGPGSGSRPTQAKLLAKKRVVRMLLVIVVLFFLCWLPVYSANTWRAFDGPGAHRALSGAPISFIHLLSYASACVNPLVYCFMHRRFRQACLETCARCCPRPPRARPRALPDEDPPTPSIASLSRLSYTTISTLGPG

DA release in striatum = test: [11C]-raclopride PET binding potential; type: in vivo, humans
Description: The Positron Emission Tomography (PET) scans were performed at the PET Center of Johns Hopkins University at Johns Hopkins Hospital, Baltimore, Md. During the PET scans three plasma samples of RPR 102681 were obtained from each subject under different dosing to measure RPR 102681 plasma concentration.
Each subject was also studied using Magnetic Resonance Imaging (MRI). Each subject received an individual thermoplastic mask molded to their face to allow for repositioning and stabilizing of the head during the MRI procedure and PET scan later. Marks, which localized the anatomical structures of interest, were placed on the mask following the MRI scan. In particular, each subject received an MRI with a sagittal scout view to localize the anterior commissure-posterior commissure (AC-PC) line to allow standardized positioning across the subjects based on the anatomical landmarks. […]
[^11C]-raclopride PET scans were preformed on days 6, 13, 20 and 27. […] To measure the specific binding of tracer, binding potential (BP) images were generated by a simplified reference model with a linear regression algorithm (Using a reference tissue model with spatial constraint to quantify [^11C] Pittsburgh compound B PET for early diagnosis of Alzheimer's disease, Yun Zhou, Susan M. Resnick, Weiguo Ye, Hong Fan, Daniel P. Holt, William E. Klunk, Chester A. Mathis, Robert Dannals, and Dean F. Wonga, NeuroImage 36 (2007) 298-312). […]
Subjects received PET scans with [^11C]-raclopride at baseline after uneventful completion of screening cocaine infusions and assignment to RPR 102681 or placebo treatment and on the fifth day of each RPR 102681 dose level (days 13, 20 and 27). After six subjects had completed all four PET scans these subjects' PET scan data was analyzed without breaking the blind to determine whether or not the PET scans should have been administered to any additional subjects. […]

[3] = Solubility in organic solvents and aqueous media; type: physicochemical

With `CC(C(=O)O)c1cccc(NC(=O)NCC(=O)N2C(C(=O)OC(C)(C)C)CSC2c2ccccc2F)c1` [RPR 102681, (2S)-2-{3-[3-({[(2R,4R)-4-tert-Butoxycarbonyl-2-(2-fluorophenyl)]-3-thiazolidinyl}carbonylmethyl)ureido]phenyl}propionic acid] the “elevation of DBP after cocaine” value ([1]; RPR 800 mg, cocaine 20 mg i.v., P-value=0.093) was “reduces”, the “elevation of HR after cocaine” value ([1]; RPR 800 mg, cocaine 40 mg i.v., P-value=0.009) was “reduces the elevation of HR” and the “elevation of SBP after cocaine” value ([1]; RPR 102681 200 mg, cocaine 20 mg i.v., P-value=0.031) was “increased the elevation of SBP”. The “SBP increase in response to cocaine vs placebo group” value ([1]; cocaine 20 mg, GEE model adjusted for baseline, P-value=0.0412) was “significantly greater SBP increase”, the “maximum HR/SBP/DBP changes across RPR 102681 dose conditions” value ([1]; pair-wise comparisons within RPR 102681 group, in general) was “does not significantly change HR/SBP/DBP” and the “HR/SBP/DBP, RPR 102681 vs placebo groups” value ([1]; prior to infusions, post saline or post cocaine infusions, any day) was “no statistical difference”. The “dopamine release in the ventral striatum (microdialysis)” value ([2]; intraperitoneal administration) was “stimulates dopamine release”, the “release of dopamine compared to baseline values” ([2]; intraperitoneal, highest dose tested 20 mg/Kg) was “almost tripled” and the CCK-B receptor antagonism (CCK-B receptor) was “potent CCK-B receptor antagonist”. The “change in [11C]-raclopride binding potential (BP)” value (DA release in striatum; Dosing Schedule A, caudate nucleus, putamen or ventral striatum) was “no statistically significant change”, the “change in [11C]-raclopride binding potential (BP)” value (DA release in striatum; Dosing Schedule B, dose 60-90 minutes prior to PET scan, caudate nucleus and ventral striatum, P<0.001) was “significantly increased BP” and the “dopamine release inferred from raclopride binding potential” value (DA release in striatum; humans, PET brain imaging) was “inhibited dopamine release”. It also gave a solubility ([3]; acetone, organic solvent or mixture) of 250 mg/mL (≈ 470 mM), a solubility ([3]; aqueous media, aqueous buffer, pH less than 6) of under 1 mg/mL and a solubility ([3]; diethyl ether, organic solvent or mixture) of 100 mg/mL (≈ 188 mM). It also gave a solubility ([3]; dimethylformamide, organic solvent or mixture, dimenthylformamide) of 1000 mg/mL (≈ 1880 mM), a solubility ([3]; ethanol, organic solvent or mixture) of 1000 mg/mL (≈ 1880 mM) and a solubility ([3]; ethyl acetate, organic solvent or mixture) of 400 mg/mL (≈ 752 mM). For the same compound, the solubility ([3]; methylene chloride, organic solvent or mixture) was 500 mg/mL (≈ 941 mM), the solubility ([3]; sodium phosphate, pH 7.4, aqueous buffer) was 20 mg/mL (≈ 37.6 mM) and the solubility ([3]; toluene, organic solvent or mixture) was 100 mg/mL (≈ 188 mM). For the same compound, the solubility ([3]; water) was 0.1 mg/mL (≈ 0.188 mM).
